In patent US11911353B2, “Fatty acid synthase inhibitor and application thereof” (Jiangnan University, priority 2019, dated 2024):

Experiments:
[1] = system: prostate cancer cells PC-3; assay: MTT tumor proliferation IC50, PC-3; format: cell-based; conditions: 72 hours of incubation
From the text: IC50 (half maximal inhibitory concentration) refers to the half inhibitory concentration of a measured antagonist. It can indicate that a certain concentration of a certain drug or substance (inhibitor) induces tumor cell apoptosis by 50%, and this concentration is referred to as 50% inhibitory concentration, namely, the corresponding concentration when the ratio of apoptotic cells to the total number of cells is equal to 50%. The IC50 value can be used to measure the ability of a drug to induce apoptosis, that is, the higher the inducing ability, the lower the value, which also can indicate the tolerance degree of a certain cell to a drug on the contrary. • (1) Cells in the logarithmic phase are collected, the concentration of a cell suspension is adjusted, it is appropriate to place 100 μl cells in each well of a 96-well plate, the cells are inoculated into the plate to adjust the density of to-be-detected cells to be 1000-10000 cells/well, and edge wells are filled with sterile PBS. • (2) The cells are incubated under 5% CO2 at 37° C., an original culture medium is discarded after complete cell adherence, 200 μl of 1 wt % FBS culture medium containing 0.01 μM, 0.1 μM, 1 μM, 5 μM and 10 μM compound I-1 or cerulenin is added into each well, and there are 6 wells run in duplicate. An equal volume of DMSO is added as a negative control. • (3) After 72 hours of incubation, the cells are photographed for state recording, an original culture medium is discarded, and 100 μl of serum-free culture medium containing 0.5 mg/ml MTT (3-(4,5-dimethylthiazole-2)-2,5-diphenyltetrazolium bromide, trade name thiazolyl blue) is added into each well. • (4) After 2-4 hours of incubation, an original culture medium is discarded, and 150 μl of dimethyl sulfoxide (DMSO) is added into each well and shaken at 300 rpm for 10 minutes to fully dissolve purple crystals. • (5) The absorbance of each well at OD570 nm is measured by an enzyme-linked immunodetection instrument, the absorbance at OD630 nm is used as a reference, dual-wavelength measurement is carried out, and survival rate results are calculated according to the following formula: Cell survival rate=(OD570−OD630)/(OD570 negative control−OD630 negative control);
wherein, OD570: OD570 value of each treatment group; OD630: OD630 value of each treatment group; OD570 control: OD570 value of the negative control group; OD630 control: OD630 value of the negative control group. • (6) The survival rate results are processed with graphpad 6.0 software according to the concentration gradient, the analysis mode is log (inhibitor) vs. Nonlinear regression (curve fit), and the calculated IC50 value is expressed as x+/−SD.
The FASN enzyme activity measurement method shown in Experimental Example 18 is used to detect the effects of different substances on FASN enzyme activity. The method shown in Experimental Example 19 is used to detect the effects of different substances on the proliferation of tumor cells, cerulenin is used as a control, and the inhibition rates (%) of different substances on FASN enzyme activity and inhibition rates (IC50 nM) on tumor proliferation are calculated.

[2] = system: prostate cancer cells PC-3; assay: Growth cycle of PC-3 cells, PI staining flow cytometry (FIG. 3); format: cell-based; conditions: 10 μM treatment group, 24 hours; control group 10.34%
From the text: […]

transplanted tumors PC3 = assay: Growth of transplanted tumors PC3 in nude mice (FIG. 8); format: in vivo; conditions: 5 mg/kg intraperitoneally every 2 days, four weeks
From the text: […]

O=C(CCCC(=O)Nc1ccc(Br)cc1)N/N=C/c1cc(Br)ccc1O [Compound I-1]
IC50 [1]: 9 nM | proportion of PC3 cells in S phase [2]: 19.10% | HE staining of transplanted tumor tissue (transplanted tumors PC3; FIG. 8B): dark dotted area is significantly reduced | tumor mass of mice (transplanted tumors PC3; PC3 transplanted tumors): significantly lower than that of the control group
